# Data from patent US11891425B2, “Thioamide-modified peptides and uses thereof” (THE TRUSTEES OF THE UNIVERSITY OF PENNSYLVANIA, priority 2014, dated 2024).
# Read-outs that look alike come from different tables or passages of the source.
# Key:
# FIG. 17 = experiment: FIG. 17
# Method: Table printed on a drawing sheet, FIG. 17
# The patent's description of the figure: FIG. 17 illustrates systematic scanning of the effects of thioamide modification position in a peptide. The thioamide modifications were conducted at different positions of the peptide chain. The resulting peptides were mixed with either papain or trypsin enzymes to measure the changes of fluorescence intensity. The “+” sign after the peptide sequence means the presence of the corresponding enzyme. The “−” sign after the peptide sequence means the lack of the corresponding enzyme.
# First reader's note: Raised S after a residue marks the thioamide position; the half-lives are proteolytic half-lives in the presence of papain or trypsin.
# [1] = cited from earlier work
# [2] = native peptide, DPP-4 substrate
Substance,Papain t1/2 (FIG. 17) [min],Trypsin t1/2 (FIG. 17) [min],"half-life (in vivo / circulating) [1, 2] [min]",half-life (in vivo / circulating) ([1]; in vivo)
μLLR^SAAAμ [compound 55],12,>200,–,–
"ENT: enterostatin, SEQ ID NO:47 (APGPR; listed as Homo sapiens)",–,–,5,–
"GIP: glucose-dependent insulinotropic factor, SEQ ID NO:5",–,–,–,less than 15 minutes
μL^SLKAAAμ [compound 53],4,4,–,–
"NPY: neuropeptide Y, SEQ ID NO:23, 36-amino acid peptide",–,–,15 to 20,–
μLLKAA^SAμ [compound 57],4,2,–,–
"GHRH: growth-hormone-releasing hormone, SEQ ID NO:43",–,–,19,–
μLLKAAAμ [compound 52],5,1,–,–
μLLKAAA^Sμ [compound 58],5,2,–,–
μLL^SKAAAμ [compound 54],180,2,–,–
μLLKA^SAAμ [compound 56],>30,3,–,–
